The values that follow come from paper PMC8218931, “Enhancement of oral bioavailability of quercetin by metabolic inhibitory nanosuspensions compared to conventional nanosuspensions” (Drug Delivery, 2021).

In brackets after ≈: the same amount, converted by molar mass.

On the set-up of data set [1]: method as in Bi et al., 2019. The conditions noted are these: piperine as a bioenhancer; ref Bi et al., 2019; cited from earlier work.
The nature of data set [2]: Solubility of Que in release medium. The conditions noted are these: PBS containing 0.1% (w/v) Tween 80 (pH 7.4). In kind it is physicochemical.
Details of data set [3]: method as in Xiao et al., 2005. The conditions noted are these: ref Xiao et al., 2005, cited from earlier work.
On the set-up of data set [4]: method as in Xiao et al., 2005. To be noted: rats, radiolabeled quercetin by gavage, free or metabolized; ref Xiao et al., 2005; cited from earlier work.
On the set-up of data set [5]: method as in Justino et al., 2004. To be noted: rats, single oral 10 mg quercetin/200 g body weight, an hour later; ref Justino et al., 2004; cited from earlier work.

`O=C(/C=C/C=C/c1ccc2c(c1)OCO2)N1CCCCC1` [piperine, Piperine]: in data set [1], the Bioavailability of silybin is 146–181%.

What is called solubility is how much of the substance goes into solution per volume. A high value points to much dissolved substance. `O=c1c(O)c(-c2ccc(O)c(O)c2)oc2cc(O)cc(O)c12` [Quercetin, 3,3′,4′,5,7-pentahydroxyflavone]: in data set [2], the solubility amounted to 30 µg/mL (≈ 99.3 µM). Besides, the “Solubility in artificial gastric juice” value in data set [3] (artificial gastric juice) is listed as 5.5 µg/mL (≈ 18.2 µM). Moreover, the “Solubility in artificial intestinal juice” value in data set [3] (artificial intestinal juice) is listed as 28.9 µg/mL (≈ 95.6 µM). The Solubility in water entry in data set [3] (water) is on record as “about 0.09 μg/mL”. Moreover, in data set [4], the Total quercetin absorbed was 20%. Besides, the Quercetin metabolized in data set [5] is listed as 93%.
